One may read the IC50 as the point on the concentration scale where inhibition reaches its midpoint. Read a high IC50 as weaker potency.

The target of experiment [1] is T1, CXCR2 (Homo sapiens, UniProt P25025).
T1 construct: expressed in transfected cells
T1 sequence (P25025 1-360): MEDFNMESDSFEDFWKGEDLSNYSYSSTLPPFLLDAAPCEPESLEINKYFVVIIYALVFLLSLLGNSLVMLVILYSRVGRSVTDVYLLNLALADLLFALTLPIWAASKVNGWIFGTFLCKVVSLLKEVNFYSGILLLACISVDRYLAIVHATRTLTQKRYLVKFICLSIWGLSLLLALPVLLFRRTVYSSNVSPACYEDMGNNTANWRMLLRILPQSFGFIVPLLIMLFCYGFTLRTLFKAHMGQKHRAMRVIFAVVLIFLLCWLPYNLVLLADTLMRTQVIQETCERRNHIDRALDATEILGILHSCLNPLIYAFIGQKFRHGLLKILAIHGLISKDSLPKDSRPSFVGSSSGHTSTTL
Briefly: NanoBRET-based G protein activation inhibition assay (REGA-SIGN Gαi1 dissociation) in HEK293A.CXCR2 cells. Format: cell-based. Particulars: n = 3; for IC50: mean; for Imax Gαi1 (maximum observed inhibitory effect): normalized to Imax of navarixin = 100%. The procedure:
Cells were trypsinized and resuspended at 3 × 10^5 cell/mL in the growth medium, whereafter they were incubated for 2 hours at RT. Cells were transfected in suspension using FuGENE® HD Transfection Reagent at a 3:1 reagent to DNA ratio in Opti-MEMTM I Reduced-Serum Medium, with the final DNA concentration of 1 μg/μL. The transfection mixture was incubated for 10 min at RT before adding it to the cell suspension. Transfected cells were seeded at 3.0 × 10^4 cells/well in a white, clear, flat-bottom 96-well plate coated with 100 μg/mL poly-D-lysin ([…], Sigma Aldrich) and incubated for 48 h at 37°C and 5% CO2. […] (2023)]. Following the 48-h incubation period, cells were washed with the assay buffer. Compounds were serially diluted in 1:500 Nano-Glo® Vivazine^TM working solution (#N2581, Promega), and 90 μL of compound/Vivazine mix was added, followed by incubation for 45 min at 37°C and 5% CO2. Plates were transferred to the FLIPR Penta system (Molecular Devices) at 37°C, and all steps onward are automated and performed by the FLIPR Penta system. After a 10-min equilibration period, the baseline BRET signal was determined by five consecutive reads followed by automatic administration of 10 μL of 10× ligand (Table 1) to the cell plate. Changes in the BRET signal was measured for 10 min, with each read spaced by 2.5 s. […] BRET ratios were extracted from ScreenWorks software (Molecular Devices) and represent the ratio between the acceptor emission of […]2 or mNG (G protein or β-arrestin recruitment, respectively) and NLuc donor emission. The basal BRET ratio was defined as the average BRET ratio of the five consecutive readings preceding ligand addition. Changes in BRET values post ligand administration (ΔBRET) were calculated for each well as a percentage difference to the previously defined basal BRET ratio. Average ΔBRET values were baseline corrected by subtracting the average negative control BRET ratio (unstimulated condition). […] AUCs were normalized to the positive control (stimulated condition); whereafter, dose-response curves were fitted to log (inhibitor) vs response (three parameters) in GraphPad 10.2.0 (GraphPad Software). […] Calculation 1: calculation of the BRET signal. • 1. […] NC correctedΔBRET=Δ[…]. • 4. a. Neg AUC of NC correctedΔBRET=Gα activation read out. b. Pos AUC of NC correctedΔBRET=β-arrestin recruitment.
A general note: BRET reads energy transfer from a luciferase to a nearby fluorophore.

The target in experiment [2] is T1, CXCR2. Briefly: Bias analysis (bias plot, bias index) of β-arrestin1 recruitment inhibition versus Gαi1 activation inhibition, navarixin as reference. The format is cell-based. The note with it: for bias index vs navarixin, statistical significance (H1): one-sample T-test; for differences in bias index between the various CXCR2 ligands (H2): one-way ANOVA followed by Tukey's test. On the procedure: For signaling bias calculations, constraints were set to bottom values equal to zero. The calculated top values generated by nonlinear fit log (inhibitor) vs response (three parameters) in GraphPad 10.2.1 were taken as Imax. […] The bias index values were calculated, as is shown in calculation 2. Briefly, log(Imax/IC50) was calculated. […] Finally, the bias index was calculated by subtracting the ∆log (Imax/IC50) of the tested compound from the stated reference pathway from that of the pathway of interest. […] The statistical significance of H1 was evaluated using a one-sample T-test with Benjamini-Hochberg correction applied for multiple comparisons, whereas H2 was assessed using a one-way ANOVA followed by Tukey’s test.
Bias index=∆LogImax/IC50P1:β−arr1−∆LogImax/IC50P2:Gai1 .
Bias plots are equimolar comparisons between the two pathways of interest.
For orientation: Activated receptors often draw arrestin, which recruitment assays turn into a signal.

Where only a bound is given, the exact number is not on record here.

Consider `CC(CO)Nc1nc(SCc2cccc(F)c2F)nc2cnccc12` (stereo not drawn) [MVH-3], for which the IC50 is over 15 µM on CXCR2 [1] (CXCL1 at EC80); 6.24 ± 1.15 µM on CXCR2 [1] (CXCL2 at EC80); over 15 µM at CXCR2 [1] (CXCL3 at EC80); 10.2 ± 6.52 µM on CXCR2 [1] (CXCL5 at EC80); 7.53 ± 1.74 µM against CXCR2 [1] (CXCL6 at EC80); 10.9 ± 9.58 µM on CXCR2 [1] (CXCL7 at EC80). Moreover, the IC50 on CXCR2 [1] (CXCL8 at EC80) was over 15 µM. Further, the “Imax Gαi1 (maximum observed inhibitory effect)” value at CXCR2 [1] (CXCL2 at EC80) is reported as 100%; at CXCR2 [1] (CXCL5 at EC80), 93.7 ± 5.53%. Also, the “bias index vs navarixin, statistical significance (H1)” value at CXCR2 [2] (CXCL1-induced responses) is “highly significant”; at CXCR2 [2] (CXCL2, CXCL5, and CXCL6 responses), “nonsignificantly different from navarixin”. The “differences in bias index between the various CXCR2 ligands (H2)” value on CXCR2 [2] is listed as “statistically significant”.
In the case of `CC(CO)Nc1nc(SCc2cccc(F)c2F)nc2oncc12` (stereo not drawn) [MVH-24], the IC50 on CXCR2 [1] (CXCL1 at EC80) was determined as 2.08 ± 0.42 µM; at CXCR2 [1] (CXCL2 at EC80), 1.21 ± 0.63 µM; on CXCR2 [1] (CXCL3 at EC80) it was 14.8 ± 10.1 µM; at CXCR2 [1] (CXCL5 at EC80) it was 1.43 ± 0.71 µM; against CXCR2 [1] (CXCL6 at EC80) it was 1.06 ± 0.75 µM; at CXCR2 [1] (CXCL7 at EC80), 0.75 ± 0.26 µM. The compound further registered an IC50 against CXCR2 [1] (CXCL8 at EC80) of 2.49 ± 1.24 µM. For the same compound, the “Imax Gαi1 (maximum observed inhibitory effect)” value at CXCR2 [1] (CXCL1 at EC80) is 96.47 ± 3.69%; on CXCR2 [1] (CXCL2 at EC80), 100%; at CXCR2 [1] (CXCL3 at EC80), 100%; on CXCR2 [1] (CXCL5 at EC80) it was 98.52 ± 2.04%; on CXCR2 [1] (CXCL6 at EC80), 100%; at CXCR2 [1] (CXCL7 at EC80) it was 94.94 ± 3.57%. The “Imax Gαi1 (maximum observed inhibitory effect)” value on CXCR2 [1] (CXCL8 at EC80) stood at 100%. For the same compound, the “bias index vs navarixin, statistical significance (H1)” value on CXCR2 [2] (CXCL1-, CXCL2-, CXCL5-, CXCL6-, and CXCL8-induced responses) was “nonsignificantly different from navarixin”.
With `CC(CCO)Nc1nc(SCc2cccc(F)c2F)nc2[nH]nnc12` (stereo not drawn) [MVH-33], the IC50 against CXCR2 [1] (CXCL1 at EC80) was over 15 µM; at CXCR2 [1] (CXCL2 at EC80) it was over 15 µM; against CXCR2 [1] (CXCL3 at EC80), over 15 µM; against CXCR2 [1] (CXCL5 at EC80), 13.1 ± 4.76 µM; at CXCR2 [1] (CXCL6 at EC80), over 15 µM; at CXCR2 [1] (CXCL7 at EC80), 10.1 ± 4.8 µM. This compound had an IC50 on CXCR2 [1] (CXCL8 at EC80) of over 15 µM. Besides, the “Imax Gαi1 (maximum observed inhibitory effect)” value is reported as under 50% on CXCR2 [1] (CXCL1 at EC80); under 50% at CXCR2 [1] (CXCL2 at EC80); under 50% at CXCR2 [1] (CXCL3 at EC80); 100% at CXCR2 [1] (CXCL5 at EC80); under 50% on CXCR2 [1] (CXCL6 at EC80); 98.43 ± 2.62% at CXCR2 [1] (CXCL7 at EC80). Also, the “Imax Gαi1 (maximum observed inhibitory effect)” value on CXCR2 [1] (CXCL8 at EC80) is under 50%. Further, the “differences in bias index between the various CXCR2 ligands (H2)” value at CXCR2 [2] is recorded as “statistically significant”.

The record behind these values is article PMC12301332, “Biased antagonism of a series of bicyclic CXCR2 intracellular allosteric modulators” (Frontiers in Pharmacology, 2025).
